Columns and labels:
[1] = tested on: arachidonic acid induced ear oedema; assay: arachidonic acid induced ear inflammation test in the mouse, complex versus its components (Example 178); type: in vivo; conditions: i.p.; for inhibition of ear oedema, in words: doses of T17
Protocol: The objective of this study is to assess the effect of a dose of a complex according to compared to the effect of the corresponding doses of the components of the complex. All compounds were systemically administered in the arachidonic acid induced ear inflammation test in the mouse, a commonly employed method for screening and evaluation of antiinflammatory drugs. Methylprednisolone was employed as reference compound.
(§1) The study was performed in female BALB/ca mice from M & B A/S, DK-8680 Ry. At start of the acclimatisation period the mice were in the weight range of 20 g (+/−5 g).
On the day of arrival the animals were randomly allocated to groups of 10 mice.
(§2) The test substances and reference compound were administered intraperitoneally in volumes of 20 ml per kg body weight 30 minutes before application of arachidonic acid to the ear.
All groups were treated with 20 μl arachidonic acid, 100 mg/ml in acetone, on the right ear.
One hour after the arachidonic acid application the mice were sacrificed, the ears cut from the tip with a punch biopsy knife (8 mm diameter) and weighed.
(§3) Mean weights and standard deviations were calculated. Relative ear oedema was assessed as the weight difference between right and left ear of each mouse expressed as percent of the left ear. Percent inhibition of the relative ear oedema compared with the vehicle treated groups was calculated for the test substance and reference compound treated groups.
All visible signs of ill health and any behavioural changes were recorded daily during the study. Any deviation from normal was recorded with respect to time of onset, duration and intensity.
Differences in relative ear oedema between the vehicle treated group and the other groups were tested for significance employing a non-parametric statistical method of analysis, the Mann-Whitney U test. The required level of significance will be p<0.05. […] All statistical analysis was performed employing the statistical software package Analyse-it v. 1.62.

muscular pain = assay: case report, with muscular pain (Example 179); type: in vivo, human
Protocol: They were then treated with the complex of the invention disclosed in example 56 (1500 mg/day) instead of glucosamine sulfate. […] After two weeks they were symptom free for the first time in 6 years, which persisted for another 6 weeks of treatment, where after the treatment was terminated.

[2] = tested on: osteoarthritis of the knees; assay: case report, person with osteoarthritis of the knees (Example 180); type: in vivo, human; conditions: for success of earlier analgesic treatment of osteoarthritis of the knees: treatment for periods during 8 years
Protocol: They were then treated with the complex of the invention disclosed in example 56 (1500 mg/day). […] The improvement persisted for the entire treatment period of 10 weeks, where after the treatment was terminated.

[3] = tested on: arachidonic acid induced ear oedema; assay: arachidonic acid induced ear inflammation test in the mouse (Example 177); type: in vivo; conditions: i.p., 30 minutes before arachidonic acid, ears weighed one hour after application
Protocol: The objective of this study is to assess the effect of three doses of two chemical complexes of the invention systemically administered in the arachidonic acid induced ear inflammation test in the mouse, a commonly employed method for screening and evaluation of antiinflammatory drugs. Dexamethasone was employed as reference compound.
as §1
On the day of arrival the animals were randomly allocated to groups of 8 mice.
as §2
All groups were treated with 20 μl arachidonic acid, 100 mg/ml in acetone, on the right ear. […]
as §3
All visible signs of ill health and any behavioural changes were recorded daily during the study. Any deviation from normal was recorded with respect to time of onset, duration and intensity. […]

C[C@H]1C[C@@H]2[C@H]([C@@H](O)C[C@@]3(C)[C@H]2CC[C@]3(O)C(=O)CO)[C@@]2(C)C=CC(=O)C=C12 [Methylprednisolone]
% Inhibition of relative ear oedema ([1]; 30 mg/kg): 55%

CC(C)(C)NCC(O)c1ccc(O)c(CO)c1 (stereo not shown) [Salbutamol]
% Inhibition of relative ear oedema ([1]; 3.0 mg/kg): 55%
inhibition of ear oedema, in words [1]: inhibited ear oedema significantly

N[C@H]1C(O)O[C@H](CO)[C@@H](O)[C@@H]1O.O=S(=O)(O)O (stereo partly shown) [Glucosamine sulfate]
improvement of muscular pain symptoms on earlier treatment (muscular pain; 1500 mg a day, continuously the last year): small improvement
% Inhibition of relative ear oedema ([1]; 997 mg/kg): 9%
inhibition of ear oedema, in words [1]: inhibited ear oedema mildly, and not statistically significantly

N[C@H]1C(O)O[C@H](CO)[C@@H](O)[C@@H]1O (stereo partly shown) [glucosamine]
effect of earlier treatment on osteoarthritis of the knees ([2]; recommended dose, different formulations): very limited effect

O=C(O)Cc1ccccc1Nc1c(Cl)cccc1Cl [diclofenac]
success of earlier analgesic treatment of osteoarthritis of the knees [2]: limited success

CS(=O)(=O)c1ccc(C2=C(c3ccccc3)C(=O)OC2)cc1 [rofecoxib]
success of earlier analgesic treatment of osteoarthritis of the knees [2]: limited success

C[C@@H]1C[C@H]2[C@@H]3CCC4=CC(=O)C=C[C@]4(C)[C@@]3(F)[C@@H](O)C[C@]2(C)[C@@]1(O)C(=O)CO [Dexamethasone]
% Inhibition of relative ear oedema ([3]; 2 mg/kg): 0%
% Inhibition of relative ear oedema ([3]; 6 mg/kg): 0%

COc1ccc2c3c1O[C@H]1[C@@H](O)C=C[C@H]4[C@@H](C2)N(C)CC[C@@]341 [codeine]
success of earlier analgesic treatment of osteoarthritis of the knees [2]: limited success

CC(C)Cc1ccc(C(C)C(=O)O)cc1 (stereo not shown) [ibuprofen]
success of earlier analgesic treatment of muscular pain (muscular pain; treatment for periods during 6 years): limited success
